Read-outs that look alike come from different tables or passages of the source.
Experiments:
Format in all cases: cell-based
[1] = system: Bacillus subtilis 168; experiment: microbe, parasite or virus in culture; settings: Bacillus subtilis, 168; 37° C., 24 hours; read-out: MIC values of in vitro antibacterial test results
[2] = system: Streptococcus pneumoniae 10351; experiment: microbe, parasite or virus in culture; settings: Streptococcus pneumoniae, 10351; 37° C., 24 hours; read-out: MIC values of in vitro antibacterial test results
[3] = system: Streptococcus pneumoniae M2; experiment: microbe, parasite or virus in culture; settings: Streptococcus pneumoniae, M2; 37° C., 24 hours; read-out: MIC values of in vitro antibacterial test results
[4] = system: Enterococcus faecalis 29212; experiment: microbe, parasite or virus in culture; settings: Enterococcus faecalis, 29212; 37° C., 24 hours; read-out: MIC values of in vitro antibacterial test results
[5] = system: Bacillus cereus 2; experiment: microbe, parasite or virus in culture; settings: Bacillus cereus, 2; 37° C., 24 hours; read-out: MIC values of in vitro antibacterial test results
[6] = system: F2518(VRE), Staphylococcus aureus resistant strain 43300(MRSA), 703 (MRSA), pneumococcal resistance bacteria 6303(PRSP); experiment: microbe, parasite or virus in culture; settings: read-out: MIC values (μM)
[7] = system: Streptococcus pneumoniae 6303 (PRSP); experiment: microbe, parasite or virus in culture; settings: Streptococcus pneumoniae, PRSP, 24 h, read-out: MIC values of in vitro antibacterial test results
[8] = system: Clostridium perfringens; experiment: microbe, parasite or virus in culture; settings: Clostridium perfringens, 24 h, read-out: MIC values of in vitro antibacterial test results
[9] = system: Staphylococcus aureus 29231; experiment: microbe, parasite or virus in culture; settings: Staphylococcus aureus, 29231; 37° C., 24 hours; read-out: MIC values of in vitro antibacterial test results
[10] = system: Staphylococcus aureus 703(MRSA); experiment: microbe, parasite or virus in culture; settings: Staphylococcus aureus, MRSA, 24 h, read-out: MIC values of in vitro antibacterial test results
[11] = system: Staphylococcus aureus 43300(MRSA); experiment: microbe, parasite or virus in culture; settings: Staphylococcus aureus, MRSA, 24 h, read-out: MIC values of in vitro antibacterial test results
[12] = system: Peel fungus; experiment: organism not typed; settings: 37° C., 24 hours; read-out: MIC values of in vitro antibacterial test results
[13] = system: Diphtheria bacilli; experiment: organism not typed; settings: 37° C., 24 hours; read-out: MIC values of in vitro antibacterial test results
[14] = system: Streptococcus agalactia B group; experiment: microbe, parasite or virus in culture; settings: Streptococcus; 37° C., 24 hours; read-out: MIC values of in vitro antibacterial test results
[15] = system: Bacillus anthracis Bacillus 1; experiment: microbe, parasite or virus in culture; settings: Bacillus anthracis, 24 h, read-out: MIC values of in vitro antibacterial test results
[16] = system: Oral Candida; experiment: microbe, parasite or virus in culture; settings: Candida
[17] = system: Enterococcus faecalis F2518(VRE); experiment: microbe, parasite or virus in culture; settings: Enterococcus faecalis, VRE, 24 h, read-out: MIC values of in vitro antibacterial test results
[18] = 37° C., 24 hours, read-out: MIC values of in vitro antibacterial test results

| Compound | MIC [1] | MIC [2] | MIC [3] | MIC [4] | MIC [5] | MIC [6] | MIC [7] | MIC [8] | MIC [9] | MIC [10] | MIC [11] | MIC [12] | MIC [13] | MIC [14] | MIC [15] | MIC ([16]; read-out: MIC values (μM)) | MIC [16, 18] | MIC [17] |
| --- | --- | --- | --- | --- | --- | --- | --- | --- | --- | --- | --- | --- | --- | --- | --- | --- | --- | --- |
| Cc1nn2c([O-])cc(-c3ccc(C(F)(F)F)nc3)nc2c1-c1ccc(F)cc1F.[K+] [Compound 26, Potassium 3-(2,4-difluorophenyl)-2-methyl-5-(6-(trifluoromethyl)pyridin-3-yl)pyrazolo[1,5-α]pyrimidin-7-olate] | < 100 µg/mL | < 150 µg/mL | < 150 µg/mL | < 100 µg/mL | < 100 µg/mL | < 100 µg/mL | < 150 µg/mL | > 150 µg/mL | < 100 µg/mL | < 100 µg/mL | < 100 µg/mL | < 150 µg/mL | > 150 µg/mL | < 150 µg/mL | > 150 µg/mL | < 100 µg/mL | < 100 µg/mL | < 150 µg/mL |
| Cc1nn2c([O-])cc(-c3ccc(C#N)nc3)nc2c1-c1ccc(F)cc1F.[K+] [Compound 27, Potassium 5-(6-cyanopyridin-3-yl)-3-(2,4-difluorophenyl)-2-methylpyrazolo[1,5-α]pyrimidin-7-olate] | < 100 µg/mL | < 100 µg/mL | < 100 µg/mL | < 100 µg/mL | < 100 µg/mL | < 100 µg/mL | < 100 µg/mL | < 150 µg/mL | < 100 µg/mL | < 100 µg/mL | < 150 µg/mL | > 150 µg/mL | < 150 µg/mL | > 150 µg/mL | > 150 µg/mL | < 100 µg/mL | < 100 µg/mL | < 150 µg/mL |
| Cc1nn2c([O-])cc(-c3ccc(S(N)(=O)=O)nc3)nc2c1-c1ccc(F)cc1F.[Na+] [Compound 29, Sodium 3-(2,4-difluorophenyl)-2-methyl-5-(6-sulfamoylpyridin-3-yl)pyrazolo[1,5-α]pyrimidin-7-olate] | > 150 µg/mL | > 150 µg/mL | < 100 µg/mL | < 150 µg/mL | < 150 µg/mL | < 100 µg/mL | > 150 µg/mL | > 150 µg/mL | > 150 µg/mL | < 150 µg/mL | < 100 µg/mL | < 150 µg/mL | > 150 µg/mL | > 150 µg/mL | > 150 µg/mL | < 100 µg/mL | < 100 µg/mL | < 150 µg/mL |
| Cc1nn2c([O-])cc(-c3ccc(C(=O)NCCN(C)C)cc3)nc2c1-c1ccc(F)cc1F.[Na+] [Compound 31, Sodium 3-(2,4-difluorophenyl)-5-(4-((2-(dimethylamino)ethyl)carbamoyl)phenyl)-2-methylpyrazolo[1,5-α]pyrimidin-7-olate] | < 100 µg/mL | < 100 µg/mL | < 100 µg/mL | < 100 µg/mL | < 100 µg/mL | < 100 µg/mL | < 100 µg/mL | > 150 µg/mL | < 100 µg/mL | < 100 µg/mL | < 150 µg/mL | > 150 µg/mL | > 150 µg/mL | > 150 µg/mL | > 150 µg/mL | < 100 µg/mL | < 100 µg/mL | < 150 µg/mL |
| Cc1nn2c([O-])cc(-c3ccc(C(N)=O)nc3)nc2c1-c1ccc(F)cc1F.[Na+] [Compound 32] | > 150 µg/mL | > 150 µg/mL | < 100 µg/mL | < 150 µg/mL | < 100 µg/mL | < 100 µg/mL | < 150 µg/mL | > 150 µg/mL | > 150 µg/mL | < 150 µg/mL | < 100 µg/mL | < 150 µg/mL | > 150 µg/mL | > 150 µg/mL | > 150 µg/mL | < 100 µg/mL | < 100 µg/mL | < 150 µg/mL |
| CC(=O)Oc1ccc(-c2cc([O-])n3nc(C)c(-c4ccc(F)cc4F)c3n2)cn1.[Na+] [Compound 33, Sodium 5-(6-acetoxypyridin-3-yl)-3-(2,4-difluorophenyl)-2-methylpyrazolo[1,5-α]pyrimidin-7-olate] | > 150 µg/mL | > 150 µg/mL | < 100 µg/mL | < 100 µg/mL | < 100 µg/mL | < 100 µg/mL | > 150 µg/mL | > 150 µg/mL | > 150 µg/mL | < 150 µg/mL | < 100 µg/mL | < 150 µg/mL | > 150 µg/mL | > 150 µg/mL | > 150 µg/mL | < 100 µg/mL | < 150 µg/mL | < 150 µg/mL |

— patent US20210094954A1, “PREPARATION METHODS AND APPLICATIONS OF 3,5-DISUBSTITUTED METHYLPYRAZOLO[1,5-A]PYRIMIDINE-7-HYDROXYLIC SALTS” (priority 2019, published 2021)
